Measured values: EP2548557A1, “Reserpine to treat cognitive faults of the central nervous system” (Dr. Loges + Co. GmbH, priority 2011, dated 2013)

Columns and labels:
[1] = test system: ionotrope AMPA-Rezeptoren; test: Hippocampus slice preparation: suppression of the reserpine effect by a glutamate receptor antagonist (AMPA); assay type: cell-based, Ratte; details: co-superfusion of antagonist with Reserpin; multiple stimuli
Description: (§1) Wirkungen von Reserpin auf die Erregbarkeit der Pyramidenzellen wurden im Hippokampus-Schnittpräparat der Ratte bestimmt. Die Analyse der Wirkungen erfolgte auf zwei Ebenen. Zunächst wurde anhand der Applikation von Einzelreizen die normale Erregbarkeit überprüft und anschließend nach einer sog. "Theta-burst-Stimulation" die Auswirkungen auf die Langzeitpotenzierung gemessen. Im nächsten Schritt wurde versucht, die Wirkung von Reserpin mit Hilfe von verschiedenen Rezeptor-spezifischen Glutamat Antagonisten zu unterdrücken.
(§2) Desweiteren wurde die Erregbarkeit der Pyramidenzellen in der Ausgangslage durch Superfusion mit einem Glutamat Rezeptor Antagonisten verändert. In der Folge wurde dann gleichzeitig Reserpin mit den verschiedenen Antagonisten zusammen superfundiert, um eine antagonistische Wirkung zu erkennen.
(§3) Dieselbe Versuchsanordnung wurde noch einmal genutzt, um in Gegenwart verschiedenster Glutamat Rezeptor Antagonisten Hinweise für eine Interaktion zwischen Reserpin und einem der Glutamat-Rezeptoren (GluR5 Kainate steht dabei für den ionotropen GluR5 Kainate-Rezeptor, Glu NMDA - für ionotrope NMDA-Rezeptoren, Glu AMPA - für ionotrope AMPA-Rezeptoren, und Glu II - für metabotrope Gruppe II Rezeptoren) zu erhalten (Abb. 5 und Abb.6).
(§4) Es wurden vier Antagonisten getestet. Dabei steht UB 301 für den Kainate-Rezeptor-Antagonisten UBP 301, CAS-Nr. 569371-10-4, der Formel [drawing 2] […]

[2] = test system: metabotrope Gruppe II Rezeptoren; test: Hippocampus slice preparation: suppression of the reserpine effect by a glutamate receptor antagonist (metabotropic group II); assay type: cell-based, Ratte; details: co-superfusion of antagonist with Reserpin; single and multiple stimuli (Abb. 5, Abb. 6)
Description: as §1, §2, §3, §4

[3] = test system: Pyramidenzellen im Hippokampus-Schnittpräparat; test: Population spike of pyramidal cells and long-term potentiation in hippocampus slice preparation in vitro; assay type: cell-based, Ratte; details: 0,025-0,1 µg/Liter Reserpin, n=4 slices
Description: Zunächst wurde anhand der Applikation von Einzelreizen die normale Erregbarkeit überprüft und anschließend nach einer sog. "Theta-burst-Stimulation" die Auswirkungen auf die Langzeitpotenzierung gemessen.
Das Experiment selbst wurde in einer sog. "Base Unit" mit Haas Top" (Firma Medical Systems Corp., USA) bei 35 Grad Celsius durchgeführt. Der mit Hilfe peristaltischer Pumpen (Infusomat B. Braun Melsungen AG) superfundierte Hippokampus-Schnitt lag auf einem Stück Gaze. Eingeleitetes Carbogen hielt die erforderliche Sauerstoffzufuhr der Lösung aufrecht. Die Durchflussgeschwindigkeit betrug 200 ml/h.
Dabei wurde der Schnitt zunächst mit Kontrolllösung superfundiert. […] Jeder Schnitt wurde jeweils nur zu einem Experiment benutzt.
Die Ableitung der evozierten Antwort erfolgte in 10-minütigem Abstand extrazellulär mit einer gezogenen Glaskapillare (Elektrodenpuller, Rhema Labortechnik, DE). Das Antwortsignal wurde verstärkt (Verstärker "LMI", List Electronics, Darmstadt, DE) mit einem Laborrechnersystem Labteam (Software NeuroTool, MediSyst GmbH, Linden DE) analog digital gewandelt (Auflösung 12 Bit) und ausgewertet. Nach Auffinden eines geeigneten Signals (Amplitudenhöhe etwa 1 mV) wurde die Amplitudenhöhe des Populationsspikes (SAP=Summenaktionspotential; Popspike) als Ausgangsgröße festgelegt. […]

Fischer-344 Ratten = test: Tele-Stereo-EEG: changes of EEG frequencies (spectral power) after oral administration; assay type: in vivo, Ratte
Method: Die Veränderungen der EEG-Frequenzen wurde nach oraler Gabe von Lactosemonohydrat (Kontrolle/Vehikel) bzw. Verdünnungen von Reserpin in Lactosemonohydrat entsprechend 0,01, 0,02 oder 0,04 µg Reserpin/kg Körpergewicht) bestimmt.
Die Untersuchungen wurden analog der durch W. Dimpfel beschriebenen Methode (Dimpfel W Preclinical data base of pharmaco-specific rat EEG fingerprints (Tele-Stereo-EEG). Eur J Med Res (2003) 8: 199-207; auf dieses Dokument wird vollinhaltlich bezug genommen) folgendermaßen durchgeführt:
Zwölf männlichen erwachsenen Fischer-344 Ratten (Tag-Nacht konvertiert) wurden im Alter von 6 Monaten 4 bipolar konzentrische Elektroden zusammen mit einem Mikrostecker auf einer gemeinsamen Basisplatte implantiert. Der Stecker diente der Aufnahme eines 4-Kanal-Senders zur telemetrischen Übertragung der aus frontalem Kortex, Hippokampus, Striatum und Formatio Reticularis abgeleiteten Feldpotentiale. Die Signale wurden auf einem Computer System (Software "EEG-Analyse", Betriebssystem OS Science, Laborrechner "LabTeam" der Firma MediSyst, Linden, DE) in Echtzeit einer Fast-FourierTransformation unterworfen und die Leistungsdichtespektren jeweils über 60 Minuten gemittelt. Die Unterteilung der Spektren in 6 verschiedene Frequenzbereiche erlaubte die Erfassung pharmako-spezifischer Veränderungen in Bezug auf die jeweils vor Applikation gemessenen Vorwerte innerhalb dieser Frequenzbänder.
Zum Applikationsprotokoll der Substanzen: die Substanzen wurden oral 45 Minuten nach Beginn der Messungen (Vorwert) appliziert. Fünf Minuten später wurden die Messungen wieder gestartet, mindestens über die nächsten 5 Stunden kontinuierlich analysiert und in 60-minütigen Perioden zusammengefasst. Die Testsubstanz wurde in einer Dosierung von 0,01, 0,02 und 0,04 µg/kg appliziert. Die experimentelle Serie wurde mit der Applikation von Lactosemonohydrat (Kontrolle), die zu keiner auffälligen Änderung führte, begonnen (oberste Zeile in Abb. 1).
Der statistische Vergleich der Versuche zu den Ergebnissen, die nach Gabe des Vehikels gemessen wurde, erfolgte mit Hilfe des statistischen Tests nach Wilcoxon, Mann und Whitney auf der Basis der Veränderungen innerhalb der einzelnen Frequenzbänder in allen Hirnregionen als Variablen.

[4] = test system: Pyramidenzellen im Hippokampus-Schnittpräparat; details: literature description (Dimpfel 1995) used as comparison; cited from earlier work

For `NS(=O)(=O)c1cccc2c1c([N+](=O)[O-])cc1[nH]c(=O)c(=O)[nH]c12` [NBQX], the “Unterdrückung der Wirkung von Reserpin durch Antagonist” value [1] was “auch eine Unterdrückung”.

For `NC1(C(=O)O)CCc2cc(P(=O)(O)O)ccc21` (racemic) [RS-Apica, (RS)-1-Amino-5-phosphono-indan-1-carbonsäure], the “Unterdrückung der Wirkung von Reserpin durch Antagonist” value [2] was “besonders ausgeprägt unterdrücken”.

With `COC(=O)[C@H]1[C@H]2C[C@@H]3c4[nH]c5cc(OC)ccc5c4CCN3C[C@H]2C[C@@H](OC(=O)c2cc(OC)c(OC)c(OC)c2)[C@@H]1OC` [Reserpin, (1S,2R,3R,4aS,13bR,14aS)-2,11-Dimethoxy-3-(3,4,5-trimethoxybenzoyloxy)-1,2,3,4,4a,5,7,8,13,13b,14,14a-dodecahydroindolo[2',3':3,4]pyrido[1,2-b]isochinolin-1-carbonsäuremethylester] the “Amplitude des Populationsspikes bei Einzelreizung” value ([3]; single stimuli of Schaffer collaterals) was “Konzentrations-abhängige Zunahme”, the “Auslösung der Langzeitpotenzierung durch TBS” value ([3]; theta-burst stimulation) was “Konzentrations-abhängig verbessert” and the “Frequenzmuster in der Diskriminanzanalyse im Vergleich zu Referenzmedikamenten” value (Fischer-344 Ratten; 0.02 µg/kg, 35 - 65 min, linear discriminant analysis, 4 brain regions x 6 frequency bands, compared with Memantin, Rasagiline, Methylphenidat) was “korreliert in auffälliger Weise mit den Mustern”. For the same compound, the “Steigerung der Motilität der Tiere” value (Fischer-344 Ratten; oral, 0,01, 0,02 and 0,04 µg/kg) was “nicht beobachtet”, the “alpha2 Wellen (spektrale Leistung)” value (Fischer-344 Ratten; oral, 0,01, 0,02 and 0,04 µg/kg, frequency band most affected) was “Besonders stark waren die alpha2 Wellen betroffen” and the “spektrale Leistung in allen Frequenzbereichen (EEG)” value (Fischer-344 Ratten; oral, 0,01, 0,02 and 0,04 µg/kg, frontal cortex, hippocampus, striatum, formatio reticularis, vs. vehicle Lactosemonohydrat, n=12) was “dosis-abhängigen Unterdrückung der spektralen Leistung in allen Frequenzbereichen”.

For `CC12CC3CC(C)(C1)CC(N)(C3)C2` [Memantin], the “Langzeit-Potenzierung (LTP) bei multipler elektrischer Reizung” value [4] is given as “Steigerung der LTP”.
